Test results taken from patent US12492373B2, “Production method for nerve tissue” (Racthera Co., Ltd., priority 2014, dated 2025).

Test system: human iPS cells (Ff-I01 strain)
Assay: Neural tissue / neuroepithelium formation in cell aggregates, bright field observation
Format: cell-based
Conditions: StemFit AK03N; SAG 300 nM for 24, 48, 72 or 96 hr in step 1, SAG 500 nM in step 2, BMP4 1.5 nM; day 19
Procedure: At the time of the start of suspension culturing (day 0 after the start of suspension culturing, […]), Y27632 ([…]) were added to the above serum-free medium (FIG. 22). By day 2 after the start of suspension culturing, a cell aggregate was formed (step 2 completed, step 3 start) under any conditions. On day 3 or later from the start of suspension culturing, BMP4 was added under 3 conditions including the following conditions 1-3. • Condition 1: (+BMP4 addition once) On day 3 of suspension culturing, a medium (50 μl) free of Y27632 and SAG, and containing human recombinant BMP4 (manufactured by R&D) was added such that the final concentration of exogenous human recombinant BMP4 was 1.5 nM (55 ng/ml). On day 6 or later from the start of suspension culturing, a half amount of the medium was changed to a serum-free medium free of Y27632, SAG and human recombinant BMP4. • Condition 2: (+BMP4 addition twice) On day 3 of suspension culturing, a medium (50 μl) free of Y27632, SAG and containing human recombinant BMP4 (manufactured by R&D) was added such that the final concentration of exogenous human recombinant BMP4 was 1.5 nM (55 ng/ml). On day 6 from the start of suspension culturing, 50 μl of the medium was discarded, and 50 μl of a medium free of Y27632 and SAG and containing human recombinant BMP4 (manufactured by R&D) was added to maintain the final concentration of exogenous human recombinant BMP4 at 1.5 nM (55 ng/ml). On day 9 or later from the start of suspension culturing, a half amount of the medium was changed with a serum-free medium free of Y27632, SAG, and human recombinant BMP4. • Condition 3: (+BMP4 addition three times) On day 3 of suspension culturing, a medium (50 μl) free of Y27632, SAG and containing human recombinant BMP4 (manufactured by R&D) was added such that the final concentration of exogenous human recombinant BMP4 was 1.5 nM (55 ng/ml). On days 6 and 9 from the start of suspension culturing, 50 μl of the medium was discarded, and 50 μl of a medium free of Y27632 and SAG and containing human recombinant BMP4 (manufactured by R&D) was added to maintain the final concentration of exogenous human recombinant BMP4 at 1.5 nM (55 ng/ml). On day 12 or later from the start of suspension culturing, a half amount of the medium was changed with a serum-free medium free of Y27632, SAG and human recombinant BMP4. […]
On day 3 after the start of suspension culturing, a medium (50 μl) free of Y27632 and SAG, and containing human recombinant BMP4 (manufactured by R&D) was added such that the final concentration of exogenous human recombinant BMP4 was 1.5 nM (55 ng/ml) or 5 nM (183 ng/ml). […]

`CNC1CCC(N(Cc2cccc(-c3ccncc3)c2)C(=O)c2sc3ccccc3c2Cl)CC1` (stereo not shown) [SAG] was tested, and the “cell aggregate growth and neuroepithelium formation” value was “neuroepithelium can be formed efficiently”.
